Reference: patent publication US20070202090A1, “Water Soluble Form Of Coenzyme Q10 In The Form Of An Inclusion Complex With Beta-Cyclodextrin, Process Of Preparing, And Use Thereof” (priority 2004, published 2007)

Tests used:
[1] = Dissolution of CoQ10 in dairy products and orange juice; type: physicochemical; settings: about 35-37 mg CoQ10 in about 200 g product
Experimental: β-Cyclodextrin (7.90 g, 6.95 mmole) was dissolved in distilled water (68 mL) at 65-70° C., and under stirring was added CoQ10 (5.00 g, 5.79 mmole). After about 30 minutes the CDQ10 complex precipitated. The reaction mixture was kept stirring for about 10 hours at 70° C., and 10 hours at room temperature, till the formation of an intensive yellow coloured paste. Then equal aliquots (each 500 μL containing about 37 mg of CoQ10 in the form of CDQ10) of the obtained mixture were admixed to about 200 g each: milk (3.5% of milk fat, Ljubljanske miekarne), liquid yoghurt (1.3% of milk fat, Ljubljanske miekarne), fruit yoghurt (peach, Ljubljanske miekarne) and orange juice (100%, Rauch). The obtained preparations were organoleptically compared with non-lemented supplemented milk, liquid yoghurt, fruit yoghurt and orange juice, as well as with those supplemented each with about 35-37 mg CoQ10. As CoQ10 was not dissolved in said products, they were not included in the tests. The tests were performed by 10-21 randomly chosen consumers.

[2] = Comparison of milk-solubility of CoQ10 and CDQ10 (saturation, HPLC); type: physicochemical; settings: fresh milk 3.5% milk fat, room temperature, addition till saturation, filtrate
Experimental: β-Cyclodextrin (1.575 g, 1.39 mmole) was dissolved in 13 mL of distilled water at 60-70° C. Then 1.00 g (1.16 mmole) of CoQ10 were added to the dissolved β-cyclodextrin, and the mixture was stirred for 20 minutes at 60-70° C. After stirring for some minutes the CDQ10 complex started to precipitate. The reaction mixture was kept stirring for about 8 hours at 60-70° C., and about 2 hours at room temperature, till the formation of a homogenous paste. Then the obtained mixture was under stirring at room temperature added to fresh milk containing 3.5% of milk fat (Ljubljanske mlekarne) till saturation. Into another milk aliquot was added under identical conditions CoQ10 till saturation. […]

dissolution in milk, liquid yoghurt, fruit yoghurt and orange juice [1]: not dissolved | Concentration of CoQ10 in milk [2]: 3.2 µg/g
Structure (SMILES): COC1=C(OC)C(=O)C(C/C=C(\C)CC/C=C(\C)CC/C=C(\C)CC/C=C(\C)CC/C=C(\C)CC/C=C(\C)CC/C=C(\C)CC/C=C(\C)CC/C=C(\C)CCC=C(C)C)=C(C)C1=O [CoQ10, coenzyme Q10]
